{
  "source": "patent US20230241051A1",
  "about": "“LONG-ACTING FORMULATIONS” (Janssen Pharmaceutica NV, priority 2020, published 2023)",
  "origin": "cited, not measured here",
  "details_in_all_cases": "cited from earlier work",
  "key": {"Mycobacterium leprae": {"test_system": "Mycobacterium leprae"}, "[1]": {"target": "mycobacterial ATP synthase (Mycobacterium tuberculosis, UniProt P9WPS1+P9WPV7)", "sequence (P9WPS1 whole entry, looked up)": "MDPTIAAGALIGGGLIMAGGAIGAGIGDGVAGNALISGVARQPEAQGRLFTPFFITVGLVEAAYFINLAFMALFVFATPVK", "sequence (P9WPV7 whole entry, looked up)": "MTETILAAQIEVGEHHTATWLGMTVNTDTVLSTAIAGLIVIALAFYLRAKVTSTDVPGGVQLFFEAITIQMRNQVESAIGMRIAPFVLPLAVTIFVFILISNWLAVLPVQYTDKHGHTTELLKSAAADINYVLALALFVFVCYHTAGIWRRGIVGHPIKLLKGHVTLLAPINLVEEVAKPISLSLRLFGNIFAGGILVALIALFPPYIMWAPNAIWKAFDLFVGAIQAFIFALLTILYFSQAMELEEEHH"}, "M. tuberculosis": {"test_system": "M. tuberculosis"}},
  "data": [
    {"smiles": "COc1nc2ccc(Br)cc2cc1[C@@H](c1ccccc1)[C@@](O)(CCN(C)C)c1cccc2ccccc12", "note": "[bedaquiline]", "values": [
      {"measurement": "minimal dose killing 99% of bacilli", "setting": "Mycobacterium leprae; M. lepra", "result": "< 5.0", "unit": "mg/kg/wk"},
      {"measurement": "activity against Mycobacterium leprae", "setting": "Mycobacterium leprae; mice", "result": "bactericidal"},
      {"measurement": "selectivity index for mycobacterial ATP synthase versus eukaryotic mitochondrial ATP synthase", "setting": "[1]", "result": "more than 20000"},
      {"measurement": "minimal dose killing 99% of bacilli", "setting": "M. tuberculosis", "result": 30, "unit": "mg/kg/wk"}
    ]}
  ]
}
